Laboratory results from patent publication US9108930B2, “N1- and N2-carbamoyl-1,2,3-triazole serine hydrolase inhibitors and methods” (The Scripps Research Institute, priority 2011, dated 2015).
“And” between values parts separate entries of the source, which are not always exact repeats. Equal values may be shown once.

Tests used:
[1] = molecular target: T1, APEH (Mus musculus, UniProt Q8R146); assay: Gel-based competitive ABPP, mouse T-cell proteome in vitro; assay type: biochemical
T1 sequence (Q8R146 1-732): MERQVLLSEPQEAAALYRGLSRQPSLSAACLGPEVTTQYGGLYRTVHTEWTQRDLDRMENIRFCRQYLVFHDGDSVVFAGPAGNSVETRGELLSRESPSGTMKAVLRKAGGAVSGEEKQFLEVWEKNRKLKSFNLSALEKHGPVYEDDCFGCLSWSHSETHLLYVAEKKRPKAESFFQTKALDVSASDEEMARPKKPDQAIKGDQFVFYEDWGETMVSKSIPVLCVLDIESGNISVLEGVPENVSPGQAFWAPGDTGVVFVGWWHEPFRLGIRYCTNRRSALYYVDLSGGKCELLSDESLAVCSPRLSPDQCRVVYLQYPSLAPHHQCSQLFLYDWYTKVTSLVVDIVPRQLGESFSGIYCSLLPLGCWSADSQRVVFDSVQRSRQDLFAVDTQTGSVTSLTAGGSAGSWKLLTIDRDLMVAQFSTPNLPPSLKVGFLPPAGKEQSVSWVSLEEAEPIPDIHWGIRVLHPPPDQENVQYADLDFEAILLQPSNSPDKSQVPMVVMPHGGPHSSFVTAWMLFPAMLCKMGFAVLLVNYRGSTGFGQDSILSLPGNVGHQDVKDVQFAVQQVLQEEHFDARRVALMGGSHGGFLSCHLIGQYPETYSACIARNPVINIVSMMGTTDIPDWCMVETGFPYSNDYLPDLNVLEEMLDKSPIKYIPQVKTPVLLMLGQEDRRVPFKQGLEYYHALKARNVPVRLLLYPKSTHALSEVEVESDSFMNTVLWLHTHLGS
Description: The carbamoyl triazole regioisomers were separated by gel chromatography and used for subsequent experiments. […] The compounds were screened at concentrations of 10 and 100 nM in mouse T-cell proteomes (FIG. 3e and FIG. 12).
Gel-based competitive ABPP experiments were performed as described previously. For competitive ABPP with FP-rhodamine, proteomes (1 mg/mL in PBS) were treated with FP-rhodamine (2 μM final concentration) in a […] total reaction volume. After 30 minutes at 25° C., the reactions were quenched with 2×SDS-PAGE loading buffer.
Proteomes were incubated with inhibitors for 30 minutes at 37° C. (in vitro) or for 4 h at 37° C. (in situ) at the indicated concentrations (n=3) prior to FP-rhodamine labeling. After SDS-PAGE and in-gel visualization, the percentage enzymatic activity remaining was determined by measuring the integrated optical intensity of the bands using IMAGER® software. IC50 values were determined from a dose-response curve generated using PRISM® software (GraphPad).

[2] = molecular target: T2, APEH recombinantly expressed in HEK-293 cells (Mus musculus, UniProt Q8R146); assay: APEH exopeptidase assay with synthetic N-acetylated hexapeptides (LC-MS); assay type: biochemical; conditions: 3 nM, 30 min pre-treatment
T2 construct: full-length cDNAs encoding mouse serine hydrolases were either transfected directly; host or cells: HEK-293
Description: Enzyme assays were performed with LC-MS by monitoring the release of the N-terminal N-acetyl amino acid. APEH was transiently overexpressed in HEK-293 cells and whole cell lysates were treated with DMSO or 3 nM AA74-1 for 30 minutes and adjusted to a final protein concentration of about 0.3 mg/mL with PBS buffer. For each reaction, about 200 μM of hexapeptide were incubated with lysates for 10 h at 37° C. before quenching with 0.8 mL MeOH. Samples were centrifuged for 10 minutes at 10,000×g at 4° C. and the supernatant was dried down under vacuum. For LC-MS analysis samples were injected into an Agilent 1100 LC-MSD SL instrument applying the following gradient: Buffer A (MeCN) to Buffer B (95:5 H2O/MeCN+50 mM NH4OAc+0.2% NH4OH). Data represent the average±s.d. for three experiments.
Enzyme assays were performed with LC-MS by monitoring the formation of free N-acetyl amino acid. Mouse APEH was recombinantly expressed in HEK-293 cells and whole cell lysates of overexpressed APEH (or mock) were pre-treated with DMSO or 3 nM AA74-1 for 30 minutes and adjusted to a final protein concentration of 0.3 mg/mL with PBS buffer. For each reaction 200 μM of hexapeptide substrate were incubated with lysates in 200 μL total reaction volume. Reactions were incubated for 10 h at 37° C. before quenching with 0.8 mL MeOH. […]

[3] = system: peritoneal macrophages; assay: LPS-stimulated TNF-alpha release (ELISA), macrophages from treated C57 BL/6 mice; assay type: in vivo, mouse; conditions: 5 mg/kg, 4 hours, i.p.; LPS 5 μg/mL, 90 min
Description: The effects of DAGLB-inhibition on the proinflammatory response in Pla2g4a^+/+ versus Pla2g4a^−/− mice also was evaluated. Thioglycolate-elicited macrophages from C57 BL/6 mice treated with KT109 or KT195 (5 mg/kg, 4 hours, i.p.) were harvested, plated, and stimulated with lipopolysaccharide (LPS).

[4] = molecular target: T3, DAGLB (Mus musculus, UniProt Q91WC9); assay: ABPP-SILAC in Neuro2A cells; conditions: about 4 hours; 25 nM KT172, 50 nM KT109
T3 sequence (Q91WC9 1-669): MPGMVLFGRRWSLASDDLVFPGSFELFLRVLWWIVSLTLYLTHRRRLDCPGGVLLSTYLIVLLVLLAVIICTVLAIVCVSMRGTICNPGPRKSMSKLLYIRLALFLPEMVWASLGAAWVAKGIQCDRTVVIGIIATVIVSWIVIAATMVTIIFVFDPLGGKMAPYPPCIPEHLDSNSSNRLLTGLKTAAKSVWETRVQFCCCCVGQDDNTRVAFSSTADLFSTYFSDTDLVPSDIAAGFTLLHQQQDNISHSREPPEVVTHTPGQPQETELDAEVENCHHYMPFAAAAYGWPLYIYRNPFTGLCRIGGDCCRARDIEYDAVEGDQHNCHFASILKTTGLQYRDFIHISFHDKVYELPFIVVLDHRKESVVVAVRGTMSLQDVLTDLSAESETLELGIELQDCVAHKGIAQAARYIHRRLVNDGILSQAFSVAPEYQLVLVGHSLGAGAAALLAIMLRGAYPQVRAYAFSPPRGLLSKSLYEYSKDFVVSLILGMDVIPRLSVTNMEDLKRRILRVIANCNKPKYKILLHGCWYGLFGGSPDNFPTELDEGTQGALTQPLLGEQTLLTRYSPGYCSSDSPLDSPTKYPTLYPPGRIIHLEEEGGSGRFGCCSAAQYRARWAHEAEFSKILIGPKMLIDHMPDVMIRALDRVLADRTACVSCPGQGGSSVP

Row | SMILES | inhibition of APEH ([1]; 10 nM) | IC50 ([1]; IC50 for APEH, in vitro, 30 minutes at 37° C., mouse) | cleavage of N-terminally acetylated residue by APEH-transfected cells [2] | secreted TNF-alpha levels [3] | DAGLB activity blocked [4]
1 | CC(C)CC(O)(CC(C)C)c1cnn(C(=O)N2CCCC2)n1 [AA74-1] | completely inhibited APEH | 5 nM and 3 nM | blocked |  | 
2 | O=C(N1CCCCC1Cc1ccccc1)n1cc(-c2ccc(-c3ccccc3)cc2)nn1 (centres unmarked) [KT109] |  |  |  | modest but significant reduction in secreted TNF-alpha levels | approximately 90%
